Reference: patent US11642344B2, “Cholesteryl ester transfer protein (CETP) inhibitor and pharmaceutical compositions comprising said inhibitor for use in the treatment or prevention of cardiovascular diseases” (NewAmsterdam Pharma B.V., priority 2014, dated 2023)

Test system: CETP
Assay: Clinical repeated dose study: plasma CETP concentration (ELISA)
Type: in vivo, human
Details: for Maximum % change from baseline in CETP concentration: repeated oral doses, steady state, mean
Description: The clinical study was a repeated dose study in 5 groups of Caucasian male subjects aged 18 to 55 years. Each subject received a single oral dose of Compound A/placebo on Day 1, followed by once daily doses on Days 8 to 35 (5 mg Compound A/placebo—Group 1) or Days 8 to 28 (1, 2.5, 10 and 25 mg Compound A/placebo—Groups 2 to 5). All doses were administered at the study center after a standard breakfast. Subjects in each dose group were allocated to study treatment in a ratio of 10 Compound A to 2 placebo. Blood samples for pharmacokinetic and pharmacodynamic (CETP activity, CETP concentration, HDL-C, LDL-C, total cholesterol, triglycerides) assessments were collected from prior to each dose and at intervals throughout the study until 336 hours after the last dose. Secondary pharmacodynamic endpoints (including apolipoproteins A1, A2, B, and E, HDL2-C, HDL3-C, phospholipids, HDL-free cholesterol [HDL-FC], HDL-cholesteryl ester [HDL-CE], HDL-phospholipids [HDL-PL], HDL-triglycerides [HDL-TG], and LDL particle size) were measured at intervals until the last day of dosing. Urine was collected for pharmacokinetics from pre dose and at intervals up to 72 hours after the first and last dose. Safety assessments including adverse events, blood pressure and pulse rate, ECGs, laboratory safety tests (including aldosterone) and physical examinations were conducted throughout both studies.
Plasma and urine concentrations of Compound A were determined using validated liquid chromatography with tandem mass spectrometry (LC/MS/MS) methods. The lower limit of quantification (LLQ) for both assays was 0.500 ng/mL. Plasma concentration of CETP was determined using a validated enzyme-linked immunosorbent assay (ELISA) method with a lower limit of quantification (LLQ) of 0.500 μg/mL. CETP activity was determined as the rate of [^3H]-labeled CE transfer from donor HDL to acceptor VLDL/LDL. [^3H]CE-labeled HDL was added to human plasma and incubated for 4 hours at 37° C. Non-HDL lipoproteins were precipitated and separated from HDL, and the amount of radioactivity in the supernatant was quantitated. CETP activity was determined as the difference of the radioactivity between the samples incubated at 37° C. and 4° C. HDL-C and LDL-C were measured by homogenous enzymatic colorimetric assay using a Modular analyser (Roche Diagnostics). Total cholesterol and triglycerides were measured by homogenous enzymatic assay using a Modular analyser (cholesterol oxidase peroxidase-peroxidase aminophenazone phenol [CHOP-PAP]) method and a glycerol phosphate oxidase [GPO-PAP] method, respectively. ApoA1, ApoA2, ApoB and ApoE were measured by immunoturbidimetry using reagents from Rolf Greiner Biochemica (Germany) and N-apoprotein standard serum from Siemens (Germany). LDL particle size was determined by gradient gel electrophoresis. HDL fraction was separated by a combined ultracentrifugation-precipitation method (Beta-quantification). HDL-2 and HDL-3 fractions were then separated by further ultracentrifugation. Total-cholesterol in HDL, HDL-2 and HLD-3 fractions, free cholesterol in HDL fraction, triglycerides in HDL fraction and phospholipids in plasma and HDL-fraction were measured using enzymatic methods and reagents from Diasys Diagnostics (Germany). The measurements were performed on an Olympus AU600 automatic analyzer and were calibrated using secondary standards from Roche Diagnostics (Total-cholesterol, triglycerides) and Diasys Diagnostics (free cholesterol, phospholipids), respectively. Esterified cholesterol was calculated as the difference between total-cholesterol and free cholesterol.
The sample sizes for the study were chosen based on practical considerations rather than statistical power. The numbers of subjects in each group were considered to be adequate to assess the main objectives of each study. Subjects were allocated to Compound A or placebo in each group by means of a computer-generated randomization code. […]

CCOC(=O)N1c2ccc(C(F)(F)F)cc2[C@@H](N(Cc2cc(C(F)(F)F)cc(C(F)(F)F)c2)c2ncc(OCCCC(=O)O)cn2)C[C@H]1CC [Compound A, {4-[(2-{[3,5-bis(trifluoromethyl)benzyl][(2R,4S)-1-(ethoxycarbonyl)-2-ethyl-6-(trifluoromethyl)-1,2,3,4-tetrahydroquinolin-4-yl]amino}pyrimidin-5-yl)oxy]butanoic acid}]
Maximum % change from baseline in CETP concentration (1 mg once daily): 128% | Maximum % change from baseline in CETP concentration (2.5 mg once daily): 144% | Maximum % change from baseline in CETP concentration (5 mg once daily): 215% | Maximum % change from baseline in CETP concentration (10 mg once daily): 249% | Maximum % change from baseline in CETP concentration (25 mg once daily): 280% | CETP concentration higher than baseline after cessation of dosing (2 weeks following 10 mg and 25 mg): approximately 1.4 fold | CETP concentration after cessation of dosing (in words) (within 2 weeks following 1 mg and 5 mg): approaching baseline values
